According to paper PMC3925373 (Bioorganic & medicinal chemistry, 2013):
Structures can show the parent of a compound that is named as a salt. Where two headings read alike, the source gives them in different places.

Assays:
[1] = target: T1, Human matrix metalloprotease-1 (Homo sapiens, UniProt P03956); assay: Human MMP-1 FRET assay; format: biochemical
T1 sequence (P03956 100-469): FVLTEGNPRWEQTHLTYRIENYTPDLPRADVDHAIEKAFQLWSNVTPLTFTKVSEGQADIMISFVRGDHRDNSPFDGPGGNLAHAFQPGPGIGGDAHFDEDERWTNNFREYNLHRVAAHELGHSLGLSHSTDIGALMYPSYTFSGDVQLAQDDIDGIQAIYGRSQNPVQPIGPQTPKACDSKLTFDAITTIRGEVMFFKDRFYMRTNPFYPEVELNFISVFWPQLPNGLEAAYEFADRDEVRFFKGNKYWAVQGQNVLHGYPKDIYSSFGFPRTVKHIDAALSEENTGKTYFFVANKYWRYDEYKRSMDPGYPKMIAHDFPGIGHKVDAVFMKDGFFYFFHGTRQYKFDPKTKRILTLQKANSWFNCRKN

[2] = target: Bacillus anthracis lethal factor (Bacillus anthracis, UniProt P15917); assay: biochemical; format: biochemical
Sequence of Bacillus anthracis lethal factor (P15917 34-809 limits assumed): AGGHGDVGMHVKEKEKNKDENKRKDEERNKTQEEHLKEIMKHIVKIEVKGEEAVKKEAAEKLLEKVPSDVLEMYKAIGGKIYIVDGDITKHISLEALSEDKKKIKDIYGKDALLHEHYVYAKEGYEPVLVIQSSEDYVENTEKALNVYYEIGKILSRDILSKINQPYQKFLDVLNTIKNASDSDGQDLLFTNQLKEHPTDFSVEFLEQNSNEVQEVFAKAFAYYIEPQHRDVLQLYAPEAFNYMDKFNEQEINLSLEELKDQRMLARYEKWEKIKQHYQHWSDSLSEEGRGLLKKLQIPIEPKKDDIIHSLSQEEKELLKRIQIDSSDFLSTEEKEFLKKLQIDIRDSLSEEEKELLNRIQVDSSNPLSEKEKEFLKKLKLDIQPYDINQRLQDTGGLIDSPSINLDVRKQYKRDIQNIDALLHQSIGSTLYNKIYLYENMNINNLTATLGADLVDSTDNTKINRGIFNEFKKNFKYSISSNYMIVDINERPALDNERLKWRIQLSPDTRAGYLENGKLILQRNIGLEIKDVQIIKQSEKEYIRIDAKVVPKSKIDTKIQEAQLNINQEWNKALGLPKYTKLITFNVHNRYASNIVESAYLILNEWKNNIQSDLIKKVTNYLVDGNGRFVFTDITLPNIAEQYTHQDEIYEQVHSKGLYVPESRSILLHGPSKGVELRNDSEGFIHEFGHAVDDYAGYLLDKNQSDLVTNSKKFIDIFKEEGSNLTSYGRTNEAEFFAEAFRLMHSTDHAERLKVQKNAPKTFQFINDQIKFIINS

BaLF = BaLF (Bacillus anthracis, UniProt P15917); format: biochemical
Sequence of BaLF (P15917 34-809 limits assumed): as above

BoNT/A LC = BoNT/A LC (Clostridium botulinum, UniProt P0DPI0); assay: biochemical; format: biochemical, Clostridium bolulinum
Sequence of BoNT/A LC (P0DPI0 2-448 limits assumed): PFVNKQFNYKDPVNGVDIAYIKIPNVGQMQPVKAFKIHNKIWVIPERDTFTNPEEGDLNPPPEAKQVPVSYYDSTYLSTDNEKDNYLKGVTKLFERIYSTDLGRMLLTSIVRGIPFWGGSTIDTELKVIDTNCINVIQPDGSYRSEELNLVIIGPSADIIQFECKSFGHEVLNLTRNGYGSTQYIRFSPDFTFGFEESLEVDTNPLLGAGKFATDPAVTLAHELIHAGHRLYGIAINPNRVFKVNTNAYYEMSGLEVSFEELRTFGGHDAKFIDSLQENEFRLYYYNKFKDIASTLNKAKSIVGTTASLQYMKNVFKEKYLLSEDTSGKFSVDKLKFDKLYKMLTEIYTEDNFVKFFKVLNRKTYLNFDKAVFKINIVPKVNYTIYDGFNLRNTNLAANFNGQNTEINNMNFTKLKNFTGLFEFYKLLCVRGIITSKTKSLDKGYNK

Compound | LF inhibitory activity (in words) [2] | also measured
Cc1cc(N)c2cc(NC(=O)Nc3ccc4nc(C)cc(N)c4c3)ccc2n1 [Compound 1] | – | IC50 [1]: > 100 µM
Cc1cc(N)c2cc(NC(=O)CCc3ccccc3C)ccc2n1 [Compound 18aa, N-(4-Amino-2-methylquinolin-6-yl)-3-(2-methylphenyl)propionamide trifluoroacetate] | inactive | –
COc1ccc(Br)cc1CCC(=O)Nc1ccc2nc(C)cc(N)c2c1 [Compound 18ee, N-(4-Amino-2-methylquinolin-6-yl)-3-(5-bromo-2-methoxyphenyl)propionamide trifluoroacetate] | inactive | –
COc1ccc(Cl)cc1CCC(=O)Nc1ccc2nc(C)cc(N)c2c1 [Compound 18ff, N-(4-Amino-2-methylquinolin-6-yl)-3-(5-chloro-2-methoxyphenyl)propionamide trifluoroacetate] | inactive | –
CCOc1ccccc1CCC(=O)Nc1ccc2nc(C)cc(N)c2c1 [Compound 18ii, N-(4-Amino-2-methylquinolin-6-yl)-3-(2-ethoxyphenyl)propionamide trifluoroacetate] | activity was also totally lost | –
Cc1cc(N)c2cc(NC(=O)c3ccc(-c4ccc5ncccc5c4)cc3)ccc2n1 [Compound 18m, N-(4-Amino-2-methylquinolin-6-yl)-4-(quinoline-6-yl)benzamide trifluoroacetate] | – | mechanism of inhibition on BaLF activity (BaLF): noncompetitive
COc1ccncc1CCC(=O)Nc1ccc2nc(C)cc(N)c2c1 [Compound 18oo, N-(4-Amino-2-methylquinolin-6-yl)-3-(4-methoxypyridin-3-yl)propionamide] | devoid of activity | –
COc1ccsc1CCC(=O)Nc1ccc2nc(C)cc(N)c2c1 [Compound 18pp, N-(4-Amino-2-methylquinolin-6-yl)-3-(3-methoxythiophene-2-yl)propionamide trifluoroacetate] | devoid of activity | –
COc1ccccc1CCC(=O)Nc1ccc2nc(C)cc(N)c2c1 [Compound 18t, N-(4-Amino-2-methylquinolin-6-yl)-3-(2-methoxyphenyl)propionamide trifluoroacetate] | – | mechanism of inhibition on BaLF activity (BaLF): noncompetitive
COc1ccc(CCC(=O)Nc2ccc3nc(C)cc(N)c3c2)cc1 [Compound 18u, N-(4-Amino-2-methylquinolin-6-yl)-3-(4-methoxyphenyl)propionamide p-toluenesulfonate] | LF inhibitory activity was lost | –
COc1cccc(CCC(=O)Nc2ccc3nc(C)cc(N)c3c2)c1 [Compound 18v, N-(4-Amino-2-methylquinolin-6-yl)-3-(3-methoxyphenyl)propionamide trifluoroacetate] | LF inhibitory activity was lost | –
COc1ccc(OC)c(CCC(=O)Nc2ccc3nc(C)cc(N)c3c2)c1 [Compound 18w, N-(4-Amino-2-methylquinolin-6-yl)-3-(2,5-dimethoxyphenyl)propionamide p-toluenesulfonate] | complete loss of activity | –
COc1cccc(CCC(=O)Nc2ccc3nc(C)cc(N)c3c2)c1OC [Compound 18x, N-(4-Amino-2-methylquinolin-6-yl)-3-(2,3-dimethoxyphenyl)propionamide p-toluenesulfonate] | complete loss of activity | –
Cc1cc(N)c2cc(NC(=O)CCc3ccccc3OC(=O)c3ccccc3)ccc2n1 [Compound 18y, N-(4-Amino-2-methylquinolin-6-yl)-3-(2-benzoyloxyphenyl)propionamide trifluoroacetate] | inactive | –
Cc1cc(N)c2cc(NC(=O)CCc3ccccc3Cl)ccc2n1 [Compound 18z, N-(4-Amino-2-methylquinolin-6-yl)-3-(2-chlorophenyl)propionamide trifluoroacetate] | inactive | –
Cc1cc(N)c2cc(NC(=O)Nc3ccc4c(c3)OCO4)ccc2n1 [Compound 20a, 1-(4-Amino-2-methylquinolin-6-yl)-3-(benzo[d][1,3]dioxol-5-yl)urea trifluoroacetate] | – | IC50 (BoNT/A LC): 51 µM; IC50 [2]: 87 µM
COc1cc(-c2cccnc2)ccc1CCC(=O)Nc1ccc2nc(C)cc(N)c2c1 [Compound 35, N-(4-Amino-2-methylquinolin-6-yl)-3-(2-methoxy-4-(pyridin-3-yl)phenyl)propanamide] | – | IC50 [2]: 55 µM
N-(4-Amino-2-methylquinolin-6-yl)isoquinoline-3-carboxamide trifluoroacetate [Compound 18h] | – | IC50 (BoNT/A LC; read-out: IC50 BoNT/A): > 100 µM
N-(4-Amino-2-methylquinolin-6-yl)quinoline-2-carboxamide trifluoroacetate [Compound 18g] | – | IC50 ([2]; read-out: IC50 LF): 52 µM
